Measured values reported in PubChem BioAssay (NCI).
“And” between values parts separate entries of the source, which are not always exact repeats. Equal values may be shown once.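 Growth conditions: 96-well plates. Treatment: test compound, 48 hours, 5 concentrations. Analysis: linear interpolation between bracketing concentrations; unreached endpoints set to highest concentration. The concentration for full growth arrest is given as TGI.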

Experiments:
Test in all cases: growth of human tumour cells (NCI), 48 h
[1] = test system: HT29 colon
[2] = test system: HOP-92 NSCLC
[3] = test system: DU-145 prostate
[4] = test system: OVCAR-4 ovarian
[5] = test system: OVCAR-5 ovarian
[6] = test system: OVCAR-3 ovarian
[7] = test system: SK-MEL-2 melanoma
[8] = test system: 786-0 renal
[9] = test system: SK-MEL-28 melanoma
[10] = test system: SNB-75 CNS

**Q.** `CCOC(=O)Nc1cc2c(c(N)n1)N=C(c1ccc3ccccc3c1)CN2` was tested. Which TGI [1] did it give?
**A.** 1.5 µM

**Q.** What about the TGI [2] of the same compound?
**A.** 6.16 µM

**Q.** What about the TGI [3] of the same compound?
**A.** > 100 µM

**Q.** And the TGI [4]?
**A.** > 64.6 µM

**Q.** What about the TGI [5] of the same compound?
**A.** > 56.8 µM

**Q.** What about the TGI [6] of the same compound?
**A.** 10.7 µM

**Q.** What about the TGI [7] of the same compound?
**A.** 5.15 µM

**Q.** What about the TGI [8] of the same compound?
**A.** 3.81 µM

**Q.** What about the TGI [9] of the same compound?
**A.** > 100 µM

**Q.** Which results are given for `COC(=O)NC1C(C)OC(OC2C/C=C(/C)C3C=CC4C(OC5CC(OC6CC(OC7CC(O)C(O)C(C)O7)C(OC7CC(O)C(OC)C(C)O7)C(C)O6)C(O)C(C)O5)C(C)CC(C)C4C3(C)/C(O)=C3\C(=O)OC4(CC(C)C(CO)=CC4/C=C\2C)C3=O)CC1(C)[N+](=O)[O-]` (stereo not given)?
**A.** TGI [1]: 20.5 µM; TGI [2]: 32.5 µM; TGI [3]: 19.6 µM; TGI [4]: 46.2 µM; TGI [5]: 42.1 µM; TGI [7]: 87.2 µM; TGI [8]: 7.08 µM; TGI [9]: 81.3 µM; TGI [10]: 16.7 µM

**Q.** Which TGI [1] does the source give for `Nc1nc(OCC2CCCCC2)c2[nH]cnc2n1` here?
**A.** 48.5 µM

**Q.** What about the TGI [2] of the same compound?
**A.** 42.7 µM

**Q.** And the TGI [3]?
**A.** > 64.3 µM

**Q.** What about the TGI [4] of the same compound?
**A.** 42.3 µM

**Q.** What about the TGI [5] of the same compound?
**A.** 53.1 µM

**Q.** And the TGI [6]?
**A.** 35.7 µM

**Q.** And the TGI [7]?
**A.** 22.1 µM

**Q.** What about the TGI [8] of the same compound?
**A.** > 88.1 µM

**Q.** What about the TGI [9] of the same compound?
**A.** 99.2 µM

**Q.** And the TGI [10]?
**A.** > 81 µM

**Q.** What does the source list for `COC(=O)/C=C1\CCCN1CCc1cc2c(cc1CC#N)OCO2`?
**A.** TGI [1]: > 100 µM; TGI [2]: > 100 µM; TGI [3]: > 100 µM; TGI [4]: > 100 µM; TGI [5]: > 100 µM; TGI [6]: 69.1 µM; TGI [7]: > 100 µM; TGI [8]: > 100 µM; TGI [9]: > 100 µM; TGI [10]: 66.8 µM

**Q.** How did the TGI [1] turn out when `CS(=O)(=O)OCCN(CCOS(C)(=O)=O)c1ccc(/C=N/Nc2ncnc3nc[nH]c23)cc1` was run?
**A.** 65.9 µM

**Q.** And the TGI [2]?
**A.** 63.5 µM

**Q.** And the TGI [4]?
**A.** 60 µM

**Q.** What about the TGI [5] of the same compound?
**A.** 51.4 µM

**Q.** What about the TGI [6] of the same compound?
**A.** 39.8 µM

**Q.** And the TGI [7]?
**A.** 39.2 µM

**Q.** And the TGI [8]?
**A.** 45.5 µM

**Q.** What about the TGI [9] of the same compound?
**A.** 63.4 µM

**Q.** What about the TGI [10] of the same compound?
**A.** 33.6 µM

**Q.** Which results are given for `O=C(CSc1nc2ccc(I)cc2c(=O)n1Cc1ccccc1)NN1C(=O)c2ccccc2C1=O`?
**A.** TGI [1]: > 100 µM; TGI [2]: 35.9 µM; TGI [3]: 95.1 µM; TGI [4]: 38.2 µM; TGI [5]: 86.7 µM; TGI [6]: 28.6 µM; TGI [7]: 28.4 µM; TGI [8]: > 100 µM; TGI [9]: 49.9 µM; TGI [10]: 21.8 µM

**Q.** Which results are given for `Cc1[nH]n(-c2ccccc2)c(=O)c1C(N(CCc1ccccc1)C1=NCC(C)S1)(C(F)(F)F)C(F)(F)F` (stereo not given)?
**A.** TGI [1]: > 100 µM; TGI [2]: 58.5 µM; TGI [3]: > 100 µM; TGI [4]: > 100 µM; TGI [5]: 88 µM; TGI [6]: > 100 µM; TGI [7]: 22.4 µM; TGI [8]: 34.9 µM; TGI [9]: 51.2 µM; TGI [10]: 50.1 µM

**Q.** How did the TGI [1] turn out when `NCCNCCNc1ccc(NCCNCCN)c2c1C(=O)c1c(O)ccc(O)c1C2=O` was run?
**A.** > 100 µM

**Q.** And the TGI [2]?
**A.** > 100 µM

**Q.** What about the TGI [3] of the same compound?
**A.** > 100 µM

**Q.** And the TGI [4]?
**A.** > 100 µM

**Q.** What about the TGI [5] of the same compound?
**A.** > 100 µM

**Q.** What about the TGI [6] of the same compound?
**A.** > 100 µM

**Q.** What about the TGI [8] of the same compound?
**A.** > 100 µM

**Q.** What about the TGI [9] of the same compound?
**A.** > 100 µM

**Q.** And the TGI [10]?
**A.** > 100 µM

**Q.** `C[N+](C)(C)CCN[N+]1(C)CCCc2ccccc21` (stereo not given) was tested. Which TGI [1] did it give?
**A.** > 100 µM

**Q.** And the TGI [2]?
**A.** > 100 µM

**Q.** And the TGI [3]?
**A.** > 100 µM

**Q.** And the TGI [4]?
**A.** > 100 µM

**Q.** What about the TGI [5] of the same compound?
**A.** > 100 µM

**Q.** What about the TGI [6] of the same compound?
**A.** > 100 µM

**Q.** And the TGI [7]?
**A.** > 100 µM

**Q.** And the TGI [8]?
**A.** > 100 µM

**Q.** What about the TGI [9] of the same compound?
**A.** > 100 µM

**Q.** What about the TGI [10] of the same compound?
**A.** > 100 µM

**Q.** `CCOP(=O)(OCC)C(Nc1cccc(F)c1)c1ccc(N(C)C)cc1` (stereo not given) was tested. Which TGI [1] did it give?
**A.** > 100 µM

**Q.** And the TGI [2]?
**A.** > 100 µM

**Q.** What about the TGI [3] of the same compound?
**A.** > 100 µM

**Q.** And the TGI [4]?
**A.** > 100 µM

**Q.** And the TGI [5]?
**A.** > 100 µM

**Q.** What about the TGI [6] of the same compound?
**A.** > 100 µM

**Q.** What about the TGI [7] of the same compound?
**A.** > 100 µM

**Q.** What about the TGI [9] of the same compound?
**A.** > 100 µM

**Q.** And the TGI [10]?
**A.** > 100 µM

**Q.** For `Cc1ccc(N=NC(C2=NC(=O)CS2)c2nc3ccccc3[nH]2)cc1` (stereo not given), which TGI [1] is on record?
**A.** > 100 µM

**Q.** And the TGI [2]?
**A.** > 100 µM

**Q.** And the TGI [4]?
**A.** > 100 µM

**Q.** What about the TGI [5] of the same compound?
**A.** > 100 µM

**Q.** And the TGI [6]?
**A.** > 100 µM

**Q.** And the TGI [9]?
**A.** > 100 µM

**Q.** And the TGI [10]?
**A.** > 100 µM

**Q.** `O=c1c2cc(S(=O)(=O)O)ccc2nc(COc2ccc(Oc3ccc(Cl)cc3Cl)cc2)n1C(=S)Nc1ccc(Cl)cc1` was tested. Which TGI [1] did it give?
**A.** 36.4 µM

**Q.** What about the TGI [2] of the same compound?
**A.** 43.3 µM

**Q.** What about the TGI [3] of the same compound?
**A.** 87 µM

**Q.** What about the TGI [4] of the same compound?
**A.** 59.3 µM

**Q.** And the TGI [5]?
**A.** 40.7 µM

**Q.** What about the TGI [6] of the same compound?
**A.** 51.7 µM

**Q.** And the TGI [7]?
**A.** 37.4 µM

**Q.** And the TGI [8]?
**A.** 40.4 µM

**Q.** What about the TGI [10] of the same compound?
**A.** 41.5 µM

**Q.** What does the source list for `Cc1ccc([N+](=O)[O-])cc1S(=O)(=O)Nc1ccc(C2=NOC(c3ccccc3O)C2)cc1` (stereo not given)?
**A.** TGI [1]: 30.8 µM; TGI [2]: > 100 µM; TGI [3]: > 100 µM; TGI [4]: 22.4 µM; TGI [5]: > 100 µM; TGI [6]: 24.1 µM; TGI [7]: > 100 µM; TGI [8]: > 100 µM; TGI [9]: > 100 µM; TGI [10]: 55.2 µM

**Q.** Which TGI [1] does the source give for `CC(=O)OCC1OC(Oc2cc(C)c(O)cc2C/C=C(\C)CC/C=C(\C)C[C@@H](C=C(C)C)OC(C)=O)C(O)C(OC(C)=O)C1OC(C)=O` (stereo not given in full) here?
**A.** > 50 µM

**Q.** And the TGI [2]?
**A.** > 50 µM

**Q.** And the TGI [3]?
**A.** > 50 µM

**Q.** What about the TGI [4] of the same compound?
**A.** > 50 µM

**Q.** And the TGI [5]?
**A.** > 50 µM

**Q.** And the TGI [6]?
**A.** > 50 µM

**Q.** What about the TGI [7] of the same compound?
**A.** > 50 µM

**Q.** And the TGI [8]?
**A.** > 50 µM

**Q.** What about the TGI [9] of the same compound?
**A.** > 50 µM

**Q.** And the TGI [10]?
**A.** 48.2 µM

**Q.** Which TGI [1] does the source give for `CC1(C=O)CCC23COC4(CCC5C6(C)CCC(OC7OCC(OC8OC(CO)C(O)C(OC9OC(CO)C(O)C(O)C9O)C8OC8OCC(O)C(O)C8O)C(O)C7OC7OC(CO)C(O)C(O)C7O)C(C)(C)C6CCC5(C)C4(C)CC2O)C3C1` (stereo not given) here?
**A.** 2.07 µM

**Q.** And the TGI [2]?
**A.** 1.53 µM

**Q.** What about the TGI [3] of the same compound?
**A.** 2.77 µM

**Q.** And the TGI [4]?
**A.** 2.38 µM

**Q.** What about the TGI [5] of the same compound?
**A.** 2.55 µM

**Q.** And the TGI [6]?
**A.** 2.79 µM

**Q.** And the TGI [7]?
**A.** 2.98 µM

**Q.** And the TGI [8]?
**A.** 2.43 µM

**Q.** What about the TGI [10] of the same compound?
**A.** 2.51 µM

**Q.** `c1c2c(cc3c1OCO3)-c1cc3ccc4c(c3c[n+]1CC2)OCO4` was tested. Which TGI [1] did it give?
**A.** > 12.5 µM

**Q.** And the TGI [2]?
**A.** > 12.5 µM

**Q.** What about the TGI [3] of the same compound?
**A.** > 12.5 µM

**Q.** And the TGI [4]?
**A.** > 12.5 µM

**Q.** And the TGI [5]?
**A.** > 12.5 µM

**Q.** What about the TGI [6] of the same compound?
**A.** > 3.26 µM

**Q.** What about the TGI [7] of the same compound?
**A.** > 12.5 µM

**Q.** What about the TGI [8] of the same compound?
**A.** > 10.1 µM

**Q.** What about the TGI [9] of the same compound?
**A.** > 12.5 µM

**Q.** And the TGI [10]?
**A.** > 8.5 µM

**Q.** For `CN(C)CCCN1c2ccc([N+](=O)[O-])cc2CCc2cc([N+](=O)[O-])ccc21`, which TGI [1] is on record?
**A.** 30.8 µM and 27.7 µM

**Q.** What about the TGI [2] of the same compound?
**A.** 20 µM and 18 µM

**Q.** And the TGI [3]?
**A.** 30.2 µM and 33 µM

**Q.** And the TGI [4]?
**A.** 14 µM and 31.3 µM

**Q.** And the TGI [5]?
**A.** 28.6 µM and 28 µM

**Q.** What about the TGI [6] of the same compound?
**A.** 30.2 µM and 30.5 µM

**Q.** What about the TGI [7] of the same compound?
**A.** 36.9 µM and 32.4 µM

**Q.** What about the TGI [8] of the same compound?
**A.** 24.5 µM and 27.5 µM

**Q.** What about the TGI [9] of the same compound?
**A.** 30 µM and 29.3 µM

**Q.** And the TGI [10]?
**A.** 24.8 µM and 29.3 µM
